{"source": "ChEMBL document CHEMBL1201862", "about": "“PubChem BioAssay data set” (2004)", "key": {"[1]": {"target": "Major prion protein (Homo sapiens, UniProt P04156)", "assay_type": "functional, cell-based"}, "[2]": {"assay": "cells"}, "[3]": {"target": "Galanin receptor type 3 (Homo sapiens, UniProt O60755)", "assay": "Fluorescence-based cell-based primary high throughput dose response assay to identify antagonists of the Galanin Receptor 3 (GalR3).", "assay_type": "functional"}, "[4]": {"assay": "cells", "assay_type": "functional, cell-based", "details": "HEK-CNG"}, "[5]": {"target": "Mu-type opioid receptor (Homo sapiens, UniProt P35372)", "assay_type": "functional, cell-based"}, "[6]": {"target": "5-hydroxytryptamine receptor 2A (Mus musculus, UniProt P35363)", "assay_type": "functional, cell-based"}, "[7]": {"target": "T1, Coagulation factor XII (Homo sapiens, UniProt P00748)", "T1 sequence (P00748 whole entry)": "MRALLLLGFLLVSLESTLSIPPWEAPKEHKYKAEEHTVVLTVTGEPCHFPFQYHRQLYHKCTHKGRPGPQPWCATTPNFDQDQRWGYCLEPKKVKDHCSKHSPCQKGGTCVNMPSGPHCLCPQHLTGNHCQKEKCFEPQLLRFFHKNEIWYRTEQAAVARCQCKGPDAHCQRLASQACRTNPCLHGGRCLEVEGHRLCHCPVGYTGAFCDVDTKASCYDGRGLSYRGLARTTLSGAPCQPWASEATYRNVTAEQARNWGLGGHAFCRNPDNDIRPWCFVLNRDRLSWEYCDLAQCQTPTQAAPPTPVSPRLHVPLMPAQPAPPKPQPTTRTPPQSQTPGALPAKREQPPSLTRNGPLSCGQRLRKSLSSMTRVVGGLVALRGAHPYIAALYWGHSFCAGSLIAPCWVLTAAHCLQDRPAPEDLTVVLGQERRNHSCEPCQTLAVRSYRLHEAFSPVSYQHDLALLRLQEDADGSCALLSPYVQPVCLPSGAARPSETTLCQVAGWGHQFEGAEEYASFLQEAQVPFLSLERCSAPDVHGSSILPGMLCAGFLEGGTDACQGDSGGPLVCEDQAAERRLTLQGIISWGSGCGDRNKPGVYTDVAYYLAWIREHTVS", "assay_type": "functional"}, "[8]": {"assay": "cells", "remark": "listed apart in the source"}, "[9]": {"target": "T2, Beta-2 adrenergic receptor (Homo sapiens, UniProt P07550)", "assay": "ADRB2 activation measured by internalization – cell-based, FAP fluorogen, flow cytometry, cherry pick 1, dose response (AID 588763)", "assay_type": "functional"}, "[10]": {"test_system": "HEK293", "assay": "NOD2 signaling inhibitors in MDP-stimulated cells, cell-based, uHTS, luminescence (AID 2001)", "assay_type": "functional", "details": "Homo sapiens"}, "[11]": {"test_system": "HEK293", "assay": "cells", "assay_type": "functional, cell-based", "details": "Homo sapiens"}, "[12]": {"target": "T2, Beta-2 adrenergic receptor", "assay": "Dose response for HTS for Beta-2AR agonists via FAP method from Powderset3.", "assay_type": "functional"}, "[13]": {"test_system": "HEK293", "assay": "cells", "assay_type": "functional, cell-based", "details": "Homo sapiens", "remark": "listed apart in the source"}, "[14]": {"test_system": "HEK293", "assay": "inhibition of NOD1-driven NF-kB reporter – cell-based, luminescence, uHTS, primary screen (AID 1578)", "assay_type": "functional", "details": "Homo sapiens"}, "[15]": {"assay": "Counterscreen for activators of the function of SWI/SNF related, matrix associated, actin dependent regulator of chromatin, subfamily a, member 2 (SMARCA2, BRM): Luminescence-based cell-based high throughput dose response assay to identify non-selective compounds using the VP16 reporter assay.", "assay_type": "functional"}, "[16]": {"assay": "fluconazole-exposed Candida albicans growth modulators – fluorescence, retest, confirmation (AID 2467)", "assay_type": "functional, cell-based"}, "[17]": {"test_system": "Vero", "assay": "cells", "assay_type": "functional", "details": "Chlorocebus sabaeus"}, "[18]": {"target": "SWI/SNF-related matrix-associated actin-dependent regulator of chromatin subfamily A member 2 (Homo sapiens, UniProt P51531)", "assay": "Luminescence-based cell-based high throughput dose response assay to identify activators of the function of SWI/SNF related, matrix associated, actin dependent regulator of chromatin, subfamily a, member 2 (SMARCA2, BRM).", "assay_type": "functional"}, "[19]": {"assay": "NIH-3T3 fibroblast cytotoxicity, dose response, cytotoxicity control, cell-based, fluorescence, Alamar Blue, secondary assay (AID 2327);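 also: NIH-3T3 mouse fibroblasts cultured with fluconazole at 8 µg/mL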", "assay_type": "functional"}, "[20]": {"test_system": "Vero", "assay": "cells", "assay_type": "functional, cell-based", "details": "Chlorocebus sabaeus"}, "[21]": {"target": "Nuclear receptor subfamily 0 group B member 1 (Homo sapiens, UniProt P51843)", "assay_type": "functional, cell-based"}, "[22]": {"assay": "cells", "assay_type": "functional, cell-based"}, "[23]": {"target": "T3, Sentrin-specific protease 1 (Homo sapiens, UniProt Q9P0U3)", "assay": "SENP1 catalytic domain blockers, concentration series – biochemical, kinetic FRET, dose response (AID 651697)", "assay_type": "functional", "details": "read-out: IC50_Mean"}, "[24]": {"target": "T3, Sentrin-specific protease 1", "assay": "Dose response confirmation of small molecule inhibitors of the catalytic domain of the SUMO protease, SENP1 in a FRET assay.", "assay_type": "functional", "details": "read-out: IC50_Mean"}, "[25]": {"target": "T4, Methionyl-tRNA synthetase, putative (Trypanosoma brucei brucei, UniProt Q38C91)", "assay_type": "functional, Trypanosoma brucei brucei strain 927/4 GUTat10.1"}, "[26]": {"target": "T4, Methionyl-tRNA synthetase, putative", "assay_type": "functional, Trypanosoma brucei brucei strain 927/4 GUTat10.1", "remark": "listed apart in the source"}, "[27]": {"assay": "Counterscreen for inhibitors of Trypanosoma brucei methionyl tRNA synthetase (MetRS): Luminescence-based cell-based high throughput dose response assay to identify compounds that are cytotoxic to Jurkat human T lymphocyte cells.", "assay_type": "functional"}, "[28]": {"test_system": "Cryptococcus neoformans", "assay": "PubChem AID 686997", "assay_type": "functional, organism-based"}, "[29]": {"assay": "blockers of HIV-1 envelope-mediated cell-cell fusion – cherry-pick, dose response (AID 652057)", "assay_type": "functional, cell-based"}, "[30]": {"assay": "HIV-1 AD8 envelope cell-cell fusion blockers – cherry-pick, dose response (AID 652062);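 also: luciferase signal from cell-cell fusion driven by HIV-1 clade B AD8 Env; potency is for inhibitors of fusion seen as a drop in luminescence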", "assay_type": "functional, cell-based"}, "[31]": {"assay": "viability loss in CEM21 cells – cell-based, CellTiter-Glo luminescence, cherry-picked, cytotoxicity control for viral fusion inhibitor project, dose response (AID 652042);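 also: potency for signal decrease meaning cytotoxicity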", "assay_type": "functional"}}, "note": "Active and inactive are the calls of the source.", "data": [{"smiles": "CCc1ccc(-c2nc3ccc(Br)cc3c(C(=O)O)c2C)s1", "values": [{"measurement": "IC50", "setting": "[1]", "result": "1.24 µM (active)"}, {"measurement": "IC50", "setting": "[2]", "result": "> 138 µM (inactive)"}]}, {"smiles": "Cc1cc(OCC(=O)Nc2ccncc2)c(C)cc1Br", "values": [{"measurement": "IC50", "setting": "[3]", "result": "1.4 µM (active)"}, {"measurement": "EC50", "setting": "[4]", "result": "> 29.9 µM (inactive)"}]}, {"smiles": "Cc1[nH]c2ccccc2c1NC(=O)CN1CCN(C(=O)c2ccco2)CC1", "values": [{"measurement": "EC50", "setting": "[5]", "result": "92.4 µM (inactive)"}, {"measurement": "EC50", "setting": "[6]", "result": "4.1 µM (active)"}, {"measurement": "IC50", "setting": "[7]", "result": "> 50 µM (inactive)"}]}, {"smiles": "COCCN1C=C(C(=O)OC)C(c2ccc(Cl)cc2)C(C(=O)OC)=C1", "values": [{"measurement": "AC50", "setting": "[8]", "result": "10.9 µM (active)"}]}, {"smiles": "Cn1c(N2CCN(c3ccccn3)CC2)nc2c1c(=O)n(Cc1ccc(Cl)cc1)c(=O)n2C", "values": [{"measurement": "EC50", "setting": "[9]", "result": "0.081 µM (active)"}, {"measurement": "IC50", "setting": "[10]", "result": "6 µM (active)"}, {"measurement": "IC50", "setting": "[11]", "result": "10.9 µM (active)"}, {"measurement": "EC50", "setting": "[12]", "result": "0.0074 µM (active)"}, {"measurement": "IC50", "setting": "[13]", "result": "7.19 µM (active)"}, {"measurement": "EC50", "setting": "[14]", "result": "6.92 µM (active)"}]}, {"smiles": "O=C(Nc1ccccc1Cl)c1ccc([N+](=O)[O-])o1", "values": [{"measurement": "EC50", "setting": "[15]", "result": "> 91.2 µM (inactive)"}, {"measurement": "EC50", "setting": "[16]", "result": "1.64 µM (active)"}, {"measurement": "CC50", "setting": "[17]", "result": "12.2 µM (active)"}, {"measurement": "EC50", "setting": "[18]", "result": "> 91.2 µM (inactive)"}, {"measurement": "EC50", "setting": "[19]", "result": "> 160 µM (inactive)"}, {"measurement": "IC50", "setting": "[20]", "result": "> 25 µM (active)"}]}, {"smiles": "O=[N+]([O-])c1ccc(COc2ccc(CN3CCOCC3)cc2)cc1", "values": [{"measurement": "IC50", "setting": "[21]", "result": "> 67.5 µM (inactive)"}, {"measurement": "IC50", "setting": "[22]", "result": "> 67.5 µM (inactive)"}]}, {"smiles": "CC/N=c1\\scc(-c2cccs2)n1/N=C/c1cc(OC)ccc1O", "values": [{"measurement": "IC50", "setting": "[23]", "result": "18.6 µM (active)"}, {"measurement": "IC50", "setting": "[24]", "result": "15.8 µM (active)"}]}, {"smiles": "Cc1ccccc1-c1c[nH]c(C(O)c2cc(Cl)cc(Cl)c2)n1", "note": "(stereo unspecified)", "values": [{"measurement": "IC50", "setting": "[25]", "result": "5.56 µM (active)"}, {"measurement": "IC50", "setting": "[26]", "result": "8.47 µM (active)"}, {"measurement": "IC50", "setting": "[27]", "result": "83.3 µM (inactive)"}]}, {"smiles": "COC(=O)C1=C(C)N(Cc2ccc(Br)cc2)C(=S)NC1c1cccc(Cl)c1", "note": "(stereo unspecified)", "values": [{"measurement": "AC50", "setting": "[28]", "result": "26.4 µM (active)"}]}, {"smiles": "C[C@H](CO)N1C[C@H](C)[C@H](CN(C)S(=O)(=O)c2ccccc2)Oc2cc(Br)ccc2S1(=O)=O", "values": [{"measurement": "AC50", "setting": "[29]", "result": "4.68 µM (active)"}, {"measurement": "AC50", "setting": "[30]", "result": "38.6 µM (active)"}, {"measurement": "AC50", "setting": "[31]", "result": "53.4 µM (active)"}]}]}
